The results in this text go back to ChEMBL document CHEMBL1649420, “Identifying chelators for metalloprotein inhibitors using a fragment-based approach” (J Med Chem, 2011).

Broadly, the inhibition is the drop in the measured response relative to a control, in per cent.

Structures are written as SMILES.

Holding throughout (details): at 1 mM
Test [1] deals with T1, Nitric oxide synthase, inducible (Mus musculus) (UniProt P29477).
T1 sequence (whole entry): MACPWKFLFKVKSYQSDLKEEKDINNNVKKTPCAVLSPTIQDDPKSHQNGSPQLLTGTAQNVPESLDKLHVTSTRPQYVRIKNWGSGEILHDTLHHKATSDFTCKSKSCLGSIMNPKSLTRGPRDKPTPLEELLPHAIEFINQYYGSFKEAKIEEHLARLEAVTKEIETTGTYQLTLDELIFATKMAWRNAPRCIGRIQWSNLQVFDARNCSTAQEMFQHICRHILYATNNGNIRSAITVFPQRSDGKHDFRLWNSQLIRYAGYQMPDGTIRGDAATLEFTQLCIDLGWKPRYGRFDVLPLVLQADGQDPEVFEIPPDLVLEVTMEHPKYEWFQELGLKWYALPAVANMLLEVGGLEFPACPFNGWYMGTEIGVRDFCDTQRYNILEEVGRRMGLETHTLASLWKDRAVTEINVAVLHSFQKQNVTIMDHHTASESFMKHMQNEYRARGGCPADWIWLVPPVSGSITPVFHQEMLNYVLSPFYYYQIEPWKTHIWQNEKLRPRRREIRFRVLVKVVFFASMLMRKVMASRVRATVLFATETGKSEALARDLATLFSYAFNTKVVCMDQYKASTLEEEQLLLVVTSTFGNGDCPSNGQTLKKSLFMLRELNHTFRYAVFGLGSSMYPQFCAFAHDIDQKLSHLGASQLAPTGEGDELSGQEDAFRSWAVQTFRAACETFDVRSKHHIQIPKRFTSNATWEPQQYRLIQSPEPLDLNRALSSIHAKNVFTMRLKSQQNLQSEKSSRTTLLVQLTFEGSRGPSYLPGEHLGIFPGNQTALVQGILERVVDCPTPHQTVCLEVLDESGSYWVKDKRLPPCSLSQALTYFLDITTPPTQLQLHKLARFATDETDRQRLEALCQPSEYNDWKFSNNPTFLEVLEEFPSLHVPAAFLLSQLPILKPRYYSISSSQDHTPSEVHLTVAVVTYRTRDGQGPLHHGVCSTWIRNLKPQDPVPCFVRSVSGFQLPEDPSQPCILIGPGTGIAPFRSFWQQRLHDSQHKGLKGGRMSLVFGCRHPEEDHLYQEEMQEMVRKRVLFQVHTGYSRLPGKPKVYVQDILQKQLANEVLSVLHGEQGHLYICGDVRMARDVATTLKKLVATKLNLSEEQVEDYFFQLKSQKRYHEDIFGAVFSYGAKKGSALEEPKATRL

Test [2] addresses Stromelysin-1 (Homo sapiens) (UniProt P08254).
Test [3] concerns the target 72 kDa type IV collagenase (Homo sapiens, UniProt P08253).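 Also: recombinant human enzyme, inhibition read after a 30 min incubation.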
For test [4], the target named is T2, Tyrosinase (Agaricus bisporus) (UniProt O42713).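 Also: inhibition measured at 10 min.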
T2 sequence (whole entry): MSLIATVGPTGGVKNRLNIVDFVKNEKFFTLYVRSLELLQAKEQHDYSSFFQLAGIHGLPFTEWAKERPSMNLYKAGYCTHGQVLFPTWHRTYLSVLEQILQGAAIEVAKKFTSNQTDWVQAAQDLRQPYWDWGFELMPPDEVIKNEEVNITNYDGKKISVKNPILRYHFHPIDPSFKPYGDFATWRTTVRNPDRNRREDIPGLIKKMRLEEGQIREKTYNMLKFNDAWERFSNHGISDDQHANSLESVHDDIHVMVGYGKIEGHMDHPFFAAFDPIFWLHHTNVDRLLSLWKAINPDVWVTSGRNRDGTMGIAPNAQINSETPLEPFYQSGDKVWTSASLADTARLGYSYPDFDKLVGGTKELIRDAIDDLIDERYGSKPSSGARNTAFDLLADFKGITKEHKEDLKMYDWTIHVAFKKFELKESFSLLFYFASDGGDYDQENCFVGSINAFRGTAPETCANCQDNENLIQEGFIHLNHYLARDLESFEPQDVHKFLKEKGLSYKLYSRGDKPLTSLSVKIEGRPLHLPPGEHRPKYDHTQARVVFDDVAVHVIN

Test [5] concerns the target Neutrophil collagenase (Homo sapiens) (UniProt P22894).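 Also: recombinant human MMP8 enzyme, percent inhibition read after 30 min.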
Test [6] concerns the target T3, Lethal factor (Bacillus anthracis) (UniProt P15917).
T3 sequence (whole entry): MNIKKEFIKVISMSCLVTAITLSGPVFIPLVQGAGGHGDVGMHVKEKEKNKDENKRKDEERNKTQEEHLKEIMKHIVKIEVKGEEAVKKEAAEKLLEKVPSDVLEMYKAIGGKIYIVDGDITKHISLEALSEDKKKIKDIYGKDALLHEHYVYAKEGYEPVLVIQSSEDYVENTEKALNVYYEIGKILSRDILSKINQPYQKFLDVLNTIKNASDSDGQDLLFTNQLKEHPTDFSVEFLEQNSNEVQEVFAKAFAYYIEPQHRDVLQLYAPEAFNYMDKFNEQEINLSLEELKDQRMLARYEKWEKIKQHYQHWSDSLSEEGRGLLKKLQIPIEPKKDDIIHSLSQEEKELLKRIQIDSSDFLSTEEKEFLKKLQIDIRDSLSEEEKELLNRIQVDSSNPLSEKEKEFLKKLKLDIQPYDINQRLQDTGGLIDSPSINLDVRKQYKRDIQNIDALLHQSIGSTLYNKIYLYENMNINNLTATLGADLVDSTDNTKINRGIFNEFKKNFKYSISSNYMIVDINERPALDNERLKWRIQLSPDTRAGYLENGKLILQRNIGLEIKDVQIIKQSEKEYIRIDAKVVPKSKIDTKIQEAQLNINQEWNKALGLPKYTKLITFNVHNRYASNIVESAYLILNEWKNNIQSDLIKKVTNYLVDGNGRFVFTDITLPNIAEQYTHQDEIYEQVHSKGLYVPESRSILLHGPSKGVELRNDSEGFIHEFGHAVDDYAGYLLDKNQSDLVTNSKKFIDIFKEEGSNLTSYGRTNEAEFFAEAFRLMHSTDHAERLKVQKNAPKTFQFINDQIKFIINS

For test [7], the target named is Matrix metalloproteinase-9 (Homo sapiens) (UniProt P14780).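 Also: recombinant human MMP9, activity read after 30 min.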
Chain of Matrix metalloproteinase-9 (Homo sapiens) (P14780 whole entry): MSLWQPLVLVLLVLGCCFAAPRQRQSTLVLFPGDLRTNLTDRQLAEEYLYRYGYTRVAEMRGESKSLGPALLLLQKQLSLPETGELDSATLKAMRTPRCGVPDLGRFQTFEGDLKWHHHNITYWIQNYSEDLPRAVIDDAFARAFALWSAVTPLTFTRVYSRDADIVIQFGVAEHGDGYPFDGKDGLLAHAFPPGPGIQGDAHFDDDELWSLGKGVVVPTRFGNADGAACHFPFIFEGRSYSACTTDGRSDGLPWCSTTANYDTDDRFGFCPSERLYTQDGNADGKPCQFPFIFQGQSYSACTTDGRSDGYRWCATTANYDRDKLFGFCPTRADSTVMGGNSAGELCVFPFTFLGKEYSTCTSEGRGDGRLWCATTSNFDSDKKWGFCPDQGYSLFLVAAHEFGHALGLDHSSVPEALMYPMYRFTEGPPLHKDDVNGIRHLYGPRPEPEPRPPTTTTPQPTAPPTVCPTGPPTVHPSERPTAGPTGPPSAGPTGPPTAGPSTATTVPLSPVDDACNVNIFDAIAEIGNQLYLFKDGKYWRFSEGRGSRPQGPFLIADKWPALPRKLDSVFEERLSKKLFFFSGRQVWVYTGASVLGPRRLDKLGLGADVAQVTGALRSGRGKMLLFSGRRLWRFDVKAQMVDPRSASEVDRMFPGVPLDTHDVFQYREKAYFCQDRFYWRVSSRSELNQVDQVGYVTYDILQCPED

Chain of Stromelysin-1 (Homo sapiens) (P08254 100-477 limits assumed): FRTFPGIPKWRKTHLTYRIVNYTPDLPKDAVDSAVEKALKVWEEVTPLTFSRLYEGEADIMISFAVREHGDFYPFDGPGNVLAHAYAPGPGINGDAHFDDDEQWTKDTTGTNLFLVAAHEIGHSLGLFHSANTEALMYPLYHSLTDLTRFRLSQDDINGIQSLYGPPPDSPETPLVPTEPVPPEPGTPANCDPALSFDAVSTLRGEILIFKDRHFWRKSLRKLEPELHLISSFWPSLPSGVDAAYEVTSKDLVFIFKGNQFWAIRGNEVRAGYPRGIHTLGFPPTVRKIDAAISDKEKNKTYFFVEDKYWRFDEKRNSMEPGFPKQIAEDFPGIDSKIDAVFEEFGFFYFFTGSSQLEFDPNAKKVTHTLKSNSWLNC
Chain of Neutrophil collagenase (Homo sapiens) (P22894 101-467 limits assumed): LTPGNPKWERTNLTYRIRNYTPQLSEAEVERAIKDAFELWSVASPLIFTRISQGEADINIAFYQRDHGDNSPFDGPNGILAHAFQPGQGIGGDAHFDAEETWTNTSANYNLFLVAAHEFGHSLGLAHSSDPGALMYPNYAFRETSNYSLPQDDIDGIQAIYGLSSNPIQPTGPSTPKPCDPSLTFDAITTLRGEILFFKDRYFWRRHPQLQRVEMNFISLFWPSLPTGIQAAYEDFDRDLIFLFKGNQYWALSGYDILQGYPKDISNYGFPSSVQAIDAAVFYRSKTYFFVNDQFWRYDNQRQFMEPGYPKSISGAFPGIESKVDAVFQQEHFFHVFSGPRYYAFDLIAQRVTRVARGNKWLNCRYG
Chain of 72 kDa type IV collagenase (P08253 110-660 limits assumed): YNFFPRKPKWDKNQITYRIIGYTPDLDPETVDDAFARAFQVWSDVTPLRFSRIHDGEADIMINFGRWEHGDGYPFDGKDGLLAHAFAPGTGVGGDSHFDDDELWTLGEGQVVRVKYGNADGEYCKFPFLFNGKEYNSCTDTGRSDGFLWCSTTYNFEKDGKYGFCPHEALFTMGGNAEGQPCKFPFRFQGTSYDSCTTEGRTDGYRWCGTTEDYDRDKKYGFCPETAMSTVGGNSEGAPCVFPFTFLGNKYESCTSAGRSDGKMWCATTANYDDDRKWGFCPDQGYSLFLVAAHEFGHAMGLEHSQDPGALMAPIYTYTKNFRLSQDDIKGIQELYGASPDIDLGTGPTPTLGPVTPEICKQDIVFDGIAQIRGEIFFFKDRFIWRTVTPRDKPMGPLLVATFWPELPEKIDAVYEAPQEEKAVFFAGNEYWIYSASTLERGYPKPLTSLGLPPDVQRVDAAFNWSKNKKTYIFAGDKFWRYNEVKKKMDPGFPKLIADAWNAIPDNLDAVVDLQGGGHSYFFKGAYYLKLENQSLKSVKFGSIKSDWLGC

As for `Nc1ccc(C(=O)O)c(O)c1`, the inhibition was 8% in test [1]; 4% in test [2]; -1% in test [3]; 55% in test [4]; 8% in test [5]; 30% in test [6]. Further, the inhibition in test [7] came out at 24%.

In the case of `Cc1ccc(S(N)(=O)=O)cc1`, the inhibition in test [1] was -5%; in test [2] it was -5%; in test [3], -2%; in test [4], 70%; in test [5], 9%; in test [6] it was 6%. Further, the inhibition in test [7] was -7%.

`CC(=O)C(C)C(C)=O`: the inhibition is 7% in test [1]; -1% in test [2]; -3% in test [3]; 67% in test [4]; 3% in test [5]; -7% in test [6]. Besides, the inhibition in test [7] is -4%.

Regarding `O=c1cccccc1O` [TROPOLONE], the inhibition turned out to be 9% in test [1]; 95% in test [2]; 89% in test [3]; 90% in test [4]; 100% in test [5]; 55% in test [6]. Further, in test [7], the inhibition turned out to be 91%.

Consider `O=C(O)c1nccc2ccccc12`, for which the inhibition in test [1] is 13%; in test [2], 67%; in test [3] it was 42%; in test [4] it was 72%; in test [5], 13%; in test [6], 31%. The inhibition in test [7] was 26%.

On to `Cc1cc(=O)c(O)co1`, for which the inhibition in test [1] was -3%; in test [2], 29%; in test [3], 37%; in test [4], 86%; in test [5] it was 31%; in test [6] it was 22%. The inhibition in test [7] came out at 31%.

On to `CC(=O)C1CCCC1=O` (stereo not drawn), for which the inhibition was determined as 29% in test [1]; 4% in test [2]; 20% in test [3]; 83% in test [4]; 37% in test [5]; 6% in test [6]. The inhibition in test [7] came out at 25%.

With `O=C(O)c1ccc(F)cc1O`, the inhibition was 1% in test [1]; -2% in test [2]; -8% in test [3]; 97% in test [4]; 4% in test [5]; 17% in test [6]. Besides, the inhibition in test [7] was found to be 5%.

Consider `O=C(O)c1ccccn1`, for which the inhibition in test [1] was found to be 6%; in test [2], 99%; in test [3], 25%; in test [4], 74%; in test [5], 30%; in test [6] it was 49%. In test [7], the inhibition was 0%.

Take `O=C(O)c1ccc(C(=O)O)nc1`: the inhibition in test [1] was -4%; in test [2] it was 91%; in test [3], -5%; in test [4], 98%; in test [5], -1%; in test [6] it was 18%. For the same compound, the inhibition in test [7] is -2%.

As for `Cn1cccc(O)c1=O`, the inhibition in test [1] is -5%; in test [2] it was -3%; in test [3] it was 4%; in test [4], -6%; in test [5] it was 13%; in test [6] it was 1%. Moreover, the inhibition in test [7] was 8%.

Turning to `CCn1ccc(=O)c(O)c1C`, the inhibition was -9% in test [1]; -8% in test [2]; 16% in test [3]; 9% in test [4]; 29% in test [5]; 10% in test [6]. Besides, in test [7], the inhibition amounted to 10%.

With `O=C(O)c1cccc(C(=O)O)n1`, the inhibition in test [1] is 20%; in test [2], 54%; in test [3], -6%; in test [4], 99%; in test [5], 17%; in test [6], 83%. Also, the inhibition in test [7] is -7%.

Turning to `Nc1[nH]cnc2ncnc1-2`, the inhibition was 6% in test [1]; 10% in test [2]; -1% in test [3]; 11% in test [4]; 9% in test [5]; 16% in test [6]. In addition, in test [7], the inhibition was -3%.

For the compound `CCCCc1ccc(C(=O)O)nc1`, the inhibition in test [1] worked out at 10%; in test [2], 80%; in test [3] it was 43%; in test [4], 75%; in test [5], 47%; in test [6], 29%. The inhibition in test [7] worked out at 18%.

On to `Cc1cc(=O)c(O)c(CCl)o1`, for which the inhibition in test [1] was 6%; in test [2] it was 59%; in test [3], 44%; in test [4], 96%; in test [5], 47%; in test [6], 21%. In addition, the inhibition in test [7] worked out at 41%.

As to `Nc1cc(=O)nc(N)[nH]1`, the inhibition in test [1] came out at 7%; in test [2], 14%; in test [3] it was 6%; in test [4], 18%; in test [5] it was 4%; in test [6], 34%. Also, in test [7], the inhibition came out at 2%.

Take `O=c1occcc1O`: the inhibition in test [1] was 42%; in test [2], 72%; in test [3], 66%; in test [4], 77%; in test [5], 68%; in test [6], 21%. In addition, the inhibition in test [7] amounted to 70%.

In the case of `Cc1cccc(C(=O)O)c1O`, the inhibition was found to be 13% in test [1]; 13% in test [2]; 1% in test [3]; 96% in test [4]; 18% in test [5]; 8% in test [6]. For the same compound, in test [7], the inhibition turned out to be 14%.
